Measurements taken from patent publication US4720495A, “Benzo[ij]quinolizine-2-carboxylic acids useful for treating bacterial infection” (priority 1985, dated 1988).
Values after ≈ are worked out from the molar mass of the structure shown.

What was measured:
[1] = test system: Staphylococcus aureus FDA 209P JC-1; assay: minimal inhibitory concentration, in vitro antibacterial activity; assay type: cell-based; details: FDA209P, 37° C., 20 hours
Experimental: (§1) The in vitro antibacterial activities of typical examples of the present compounds [I] were evaluated in terms of the minimal inhibitory concentration defined as the lowest concentration of the compound preventing the bacterial growth. The Gram-positive bacteria used as test microorganisms included Bacillus subtilis, Staphylococcus aureus and Streptococcus faecalis, and the Gram-negative bacteria used as test microorganisms included Escherichia coli, Enterobacter cloacae, Klebsiella pneumoniae, Proteus vulgaris, Pseudomonas aeruginosa, Serratia marcescens and Salmonella enteritidis. The minimal inhibitory concentration (cultured at 37° C. for 20 hours) was determined according to the standard method prescribed by the Japan Society of Chemotherapy (CHEMOTHERAPY, Vol. 29, No. 1, p. 76, 1981). The following compounds were used as typical examples of the present compounds [I]. At the end of the chemical name of each compound, its tentative designation is given in Parentheses.
(§2) For purposes of comparison, the in vitro antibacterial activities of ofloxacin, OPC-7241 and compound α were evaluated according to the same method as described above and the test results thus obtained are also shown in Table 1.

[2] = test system: Salmonella enteritidis G14; assay: as above; assay type: cell-based; details: Salmonella enterica, 37° C., 20 hours
Experimental: as §1, §2

[3] = test system: Pseudomonas aeruginosa NCTC 10490; assay: as above; assay type: cell-based; details: NCTC10490, 37° C., 20 hours
Experimental: as §1, §2

[4] = test system: Serratia marcescens IAM 1184; assay: as above; assay type: cell-based; details: IAM1184, 37° C., 20 hours
Experimental: as §1, §2

[5] = test system: Escherichia coli NIHJ JC-2; assay: as above; assay type: cell-based; details: NIHJJC2, 37° C., 20 hours
Experimental: as §1, §2

Enterobacter cloacae 963 = assay: as above; assay type: cell-based; details: 37° C., 20 hours
Experimental: as §1, §2

[6] = test system: Klebsiella pneumoniae PCI 602; assay: as above; assay type: cell-based; details: PCI602, 37° C., 20 hours
Experimental: as §1, §2

[7] = test system: Proteus vulgaris ATCC 13315; assay: as above; assay type: cell-based; details: ATCC13315, 37° C., 20 hours
Experimental: as §1, §2

Escherichia coli CI-304 = assay: as above; assay type: cell-based; details: CI304, 37° C., 20 hours
Experimental: as §1, §2

[8] = test system: Bacillus subtilis ATCC 6633; assay: as above; assay type: cell-based; details: ATCC6633, 37° C., 20 hours
Experimental: as §1, §2

[9] = test system: Streptococcus faecalis AHU 1085; assay: as above; assay type: cell-based; details: Enterococcus faecalis, AHU1085, 37° C., 20 hours
Experimental: as §1, §2

[10] = enteral absorbability, serum concentration after oral administration to mice; assay type: in vivo; details: mouse, 50 mg/kg orally, fasted male ICR mice; for concentration at 0.5 h: 30 min.
Experimental: Using male ICR mice fasted overnight (weighing 20±1 g), the enteral absorbability of some typical examples of the present compounds [I] was tested. This test was carried out by administering 50 mg/kg of each test compound orally to mice and determining its serum concentration 30 minutes, 1 hour, 2 hours and 4 hours after administration. Five mice were used for each test point. At each test point, whole blood was collected from the mice by cardiac puncture and used to prepare serum samples. Concentrations of the test compounds in serum samples were determined by the paper disc method using Escherichia coli CI-304 as the test microorganism.
For purposes of comparison, the enteral absorbability of ofloxacin and OPC-7241 was tested in the same manner as described above and the results thus obtained are also shown in Table 2.

MIC [1]	MIC [2]	MIC [3]	MIC [4]	MIC [5]	MIC (Enterobacter cloacae 963)	MIC [6]	MIC [7]	MIC (Escherichia coli CI-304)	MIC [8]	MIC [9]	concentration at 0.5 h [10]	concentration at 1 h [10]	concentration at 2 h [10]	concentration at 4 h [10]	SMILES
–	1.56 µg/mL (≈ 4.2 µM)	1.56 µg/mL (≈ 4.2 µM)	–	0.39 µg/mL (≈ 1.05 µM)	0.39 µg/mL (≈ 1.05 µM)	0.2 µg/mL (≈ 0.538 µM)	0.1 µg/mL (≈ 0.269 µM)	0.2 µg/mL (≈ 0.538 µM)	–	–	–	–	–	–	CC1C=Cc2c(N3CCNC(C)(C)C3)c(F)cc3c(=O)c(C(=O)O)cn1c23 (centres unmarked) [Compound 26, 9-Fluoro-5-methyl-8-(3,3-dimethyl-1-piperazinyl) -1-oxo-1H, 5H-benzo[ij]quinolizine-2-carboxylic acid]
0.78 µg/mL (≈ 2.02 µM)	0.78 µg/mL (≈ 2.02 µM)	–	1.56 µg/mL (≈ 4.05 µM)	–	0.39 µg/mL (≈ 1.01 µM)	0.2 µg/mL (≈ 0.519 µM)	0.1 µg/mL (≈ 0.259 µM)	0.2 µg/mL (≈ 0.519 µM)	–	–	–	–	–	–	CC1CN(c2c(F)cc3c(=O)c(C(=O)O)cn4c3c2C=CC4C)CC(C)N1C (centres unmarked) [Compound 27, 9-Fluoro-5-methyl-8-(3,4,5-trimethyl-1-piperazinyl) -1-oxo-1H, 5H-benzo[ij]quinolizine-2-carboxylic acid]
–	–	–	–	–	–	0.1 µg/mL (≈ 0.248 µM)	–	0.39 µg/mL (≈ 0.967 µM)	–	–	–	–	–	–	CC1CC(=O)c2c(N3CCN(CCO)CC3)c(F)cc3c(=O)c(C(=O)O)cn1c23 (centres unmarked) [Compound 12, 9-Fluoro-5-methyl-8-[4-(2-hydroxyethyl) -1-piperazinyl]-6,7-dihydro-1,7-dioxo-1H, 5H-benzo[ij]quinolizine-2-carboxylic acid]
–	–	–	–	0.78 µg/mL (≈ 2.01 µM)	0.78 µg/mL (≈ 2.01 µM)	0.2 µg/mL (≈ 0.516 µM)	–	0.39 µg/mL (≈ 1.01 µM)	0.39 µg/mL (≈ 1.01 µM)	–	–	–	–	–	CCC1CC(=O)c2c(N3CCN(C)CC3)c(F)cc3c(=O)c(C(=O)O)cn1c23 (centres unmarked) [Compound 6, 9-Fluoro-5-ethyl-8-(4-methyl-1-piperazinyl) -6,7-dihydro-1,7-dioxo-1H, 5H-benzo[ij]quinolizine-2-carboxylic acid]
0.39 µg/mL	0.78 µg/mL	0.78 µg/mL	1.56 µg/mL	0.39 µg/mL	0.78 µg/mL	0.1 µg/mL	0.1 µg/mL	0.2 µg/mL	0.1 µg/mL	1.56 µg/mL	–	–	–	–	CC1C=Cc2c(N3CCN(C)CC3)c(F)cc3c(=O)c(C(=O)O)cn1c23.Cl (centres unmarked) [Compound 37, 9-Fluoro-5-methyl-8-(4-methyl-1-piperazinyl) -1-oxo-1H, 5H-benzo[ij]quinolizine-2-carboxylic acid hydrochloride]
–	–	–	–	0.39 µg/mL (≈ 1.05 µM)	0.78 µg/mL (≈ 2.1 µM)	0.2 µg/mL (≈ 0.538 µM)	–	0.2 µg/mL (≈ 0.538 µM)	–	–	–	–	–	–	CCC1C=Cc2c(N3CCNC(C)C3)c(F)cc3c(=O)c(C(=O)O)cn1c23 (centres unmarked) [Compound 32, 9-Fluoro-5-ethyl-8-(3-methyl-1-piperazinyl) -1-oxo-1H, 5H-benzo[ij]quinolizine-2-carboxylic acid]
0.2 µg/mL (≈ 0.538 µM)	1.56 µg/mL (≈ 4.2 µM)	1.56 µg/mL (≈ 4.2 µM)	1.56 µg/mL (≈ 4.2 µM)	0.39 µg/mL (≈ 1.05 µM)	0.2 µg/mL (≈ 0.538 µM)	0.1 µg/mL (≈ 0.269 µM)	0.1 µg/mL (≈ 0.269 µM)	0.2 µg/mL (≈ 0.538 µM)	0.2 µg/mL (≈ 0.538 µM)	–	15500 ng/mL	14900 ng/mL	9300 ng/mL	5400 ng/mL	CC1CN(c2c(F)cc3c(=O)c(C(=O)O)cn4c3c2C=CC4C)CCN1C (centres unmarked) [Compound 25, 9-Fluoro-5-methyl-8-(3,4-dimethyl-1-piperazinyl) -1-oxo-1H, 5H-benzo[ij]quinolizine-2-carboxylic acid]
0.39 µg/mL (≈ 1.09 µM)	0.78 µg/mL (≈ 2.18 µM)	0.78 µg/mL (≈ 2.18 µM)	1.56 µg/mL (≈ 4.37 µM)	0.39 µg/mL (≈ 1.09 µM)	0.78 µg/mL (≈ 2.18 µM)	0.1 µg/mL (≈ 0.28 µM)	0.1 µg/mL (≈ 0.28 µM)	0.2 µg/mL (≈ 0.56 µM)	0.1 µg/mL (≈ 0.28 µM)	1.56 µg/mL (≈ 4.37 µM)	–	–	–	–	CC1C=Cc2c(N3CCN(C)CC3)c(F)cc3c(=O)c(C(=O)O)cn1c23 (centres unmarked) [Compound 19, 9-Fluoro-5-methyl-8-(4-methyl-1-piperazinyl) -1-oxo-1H, 5H-benzo[ij]quinolizine-2-carboxylic acid]
0.39 µg/mL (≈ 1.01 µM)	0.78 µg/mL (≈ 2.01 µM)	3.13 µg/mL (≈ 8.08 µM)	–	0.39 µg/mL (≈ 1.01 µM)	0.39 µg/mL (≈ 1.01 µM)	0.1 µg/mL (≈ 0.258 µM)	–	0.1 µg/mL (≈ 0.258 µM)	0.39 µg/mL (≈ 1.01 µM)	3.13 µg/mL (≈ 8.08 µM)	15000 ng/mL	11700 ng/mL	6700 ng/mL	4300 ng/mL	CC1CC(=O)c2c(N3CCNC(C)(C)C3)c(F)cc3c(=O)c(C(=O)O)cn1c23 (centres unmarked) [Compound 15, 9-Fluoro-5-methyl-8-(3,3-dimethyl-1-piperazinyl) -6,7-dihydro-1,7-dioxo-1H, 5H-benzo[ij]quinolizine-2-carboxylic acid]
–	–	–	–	0.78 µg/mL (≈ 1.87 µM)	0.78 µg/mL (≈ 1.87 µM)	0.1 µg/mL (≈ 0.239 µM)	–	0.2 µg/mL (≈ 0.479 µM)	–	–	–	–	–	–	CC1CN(c2c(Cl)cc3c(=O)c(C(=O)O)cn4c3c2C(=O)CC4C)CC(C)N1C (centres unmarked) [Compound 18, 9-Chloro-5-methyl-8-(3,4,5-trimethyl-1-piperazinyl) -6,7-dihydro-1,7-dioxo-1H, 5H-benzo[ij]quinolizine-2-carboxylic acid]
0.78 µg/mL (≈ 1.94 µM)	–	1.56 µg/mL (≈ 3.89 µM)	–	0.39 µg/mL (≈ 0.972 µM)	0.78 µg/mL (≈ 1.94 µM)	0.1 µg/mL (≈ 0.249 µM)	–	0.2 µg/mL (≈ 0.498 µM)	0.39 µg/mL (≈ 0.972 µM)	3.13 µg/mL (≈ 7.8 µM)	–	–	–	–	CCCN1CCN(c2c(F)cc3c(=O)c(C(=O)O)cn4c3c2C(=O)CC4C)CC1 (centres unmarked) [Compound 8, 9-Fluoro-5-methyl-8-(4-n-propyl-1-piperazinyl)-6,7-dihydro-1,7-dioxo-1H, 5H-benzo[ij]quinolizine-2-carboxylic acid]

SMILES	MIC [1]	MIC [2]	MIC [3]	MIC [4]	MIC [5]	MIC (Enterobacter cloacae 963)	MIC [6]	MIC [7]	MIC (Escherichia coli CI-304)	MIC [8]	MIC [9]	concentration at 0.5 h [10]	concentration at 1 h [10]	concentration at 2 h [10]	concentration at 4 h [10]
CC1C=Cc2c(N3CCNCC3)c(F)cc3c(=O)c(C(=O)O)cn1c23 (centres unmarked) [Compound 20, 9-Fluoro-5-methyl-8-(1-piperazinyl) -1-oxo-1H, 5H-benzo[ij]quinolizine-2-carboxylic acid]	0.78 µg/mL (≈ 2.27 µM)	0.78 µg/mL (≈ 2.27 µM)	3.13 µg/mL (≈ 9.12 µM)	3.13 µg/mL (≈ 9.12 µM)	0.39 µg/mL (≈ 1.14 µM)	0.78 µg/mL (≈ 2.27 µM)	0.2 µg/mL (≈ 0.582 µM)	0.2 µg/mL (≈ 0.582 µM)	0.2 µg/mL (≈ 0.582 µM)	–	–	–	–	–	–
CC1C=Cc2c(N3CCNCC3)c(Cl)cc3c(=O)c(C(=O)O)cn1c23 (centres unmarked) [Compound 22, 9-Chloro-5-methyl-8-(1-piperazinyl) -1-oxo-1H, 5H-benzo[ij]quinolizine-2-carboxylic acid]	0.2 µg/mL (≈ 0.556 µM)	0.78 µg/mL (≈ 2.17 µM)	0.78 µg/mL (≈ 2.17 µM)	0.78 µg/mL (≈ 2.17 µM)	0.2 µg/mL (≈ 0.556 µM)	0.2 µg/mL (≈ 0.556 µM)	0.1 µg/mL (≈ 0.278 µM)	0.1 µg/mL (≈ 0.278 µM)	0.1 µg/mL (≈ 0.278 µM)	0.1 µg/mL (≈ 0.278 µM)	0.78 µg/mL (≈ 2.17 µM)	–	–	–	–
CC1CC(=O)c2c(N3CCNCC3)c(F)cc3c(=O)c(C(=O)O)cn1c23 (centres unmarked) [Compound 1, 9-Fluoro-5-methyl-8-(1-piperazinyl)-6,7-dihydro-1,7-dioxo-1H,5H-benzo[ij]quinolizine-2-carboxylic acid]	0.2 µg/mL (≈ 0.557 µM)	0.39 µg/mL (≈ 1.09 µM)	1.56 µg/mL (≈ 4.34 µM)	3.13 µg/mL (≈ 8.71 µM)	0.39 µg/mL (≈ 1.09 µM)	0.78 µg/mL (≈ 2.17 µM)	0.1 µg/mL (≈ 0.278 µM)	0.2 µg/mL (≈ 0.557 µM)	0.1 µg/mL (≈ 0.278 µM)	0.39 µg/mL (≈ 1.09 µM)	1.56 µg/mL (≈ 4.34 µM)	–	–	–	–
CC1CC(=O)c2c(N3CCNCC3)c(Cl)cc3c(=O)c(C(=O)O)cn1c23 (centres unmarked) [Compound 2, 9-Chloro-5-methyl-8-(1-piperazinyl)-6,7-dihydro-1,7-dioxo-1H,5H-benzo[ij]quinolizine-2-carboxylic acid]	0.39 µg/mL (≈ 1.04 µM)	–	0.78 µg/mL (≈ 2.08 µM)	–	0.39 µg/mL (≈ 1.04 µM)	0.78 µg/mL (≈ 2.08 µM)	0.1 µg/mL (≈ 0.266 µM)	0.1 µg/mL (≈ 0.266 µM)	0.2 µg/mL (≈ 0.532 µM)	0.39 µg/mL (≈ 1.04 µM)	–	–	–	–	–
